Laboratory results taken from patent publication US20260234147A1 (priority 2023, published 2026).
Like-named read-outs stand apart in the source and are kept apart here.

Tests used:
α2A adrenergic receptor = target: T1, α2A adrenergic receptor (Homo sapiens, UniProt P08913); assay: Radioligand binding assay (Eurofins Cerep), [3H]RX 821002 displacement
T1 construct: Eurofins Cerep (contract screening)
T1 sequence (P08913 1-465): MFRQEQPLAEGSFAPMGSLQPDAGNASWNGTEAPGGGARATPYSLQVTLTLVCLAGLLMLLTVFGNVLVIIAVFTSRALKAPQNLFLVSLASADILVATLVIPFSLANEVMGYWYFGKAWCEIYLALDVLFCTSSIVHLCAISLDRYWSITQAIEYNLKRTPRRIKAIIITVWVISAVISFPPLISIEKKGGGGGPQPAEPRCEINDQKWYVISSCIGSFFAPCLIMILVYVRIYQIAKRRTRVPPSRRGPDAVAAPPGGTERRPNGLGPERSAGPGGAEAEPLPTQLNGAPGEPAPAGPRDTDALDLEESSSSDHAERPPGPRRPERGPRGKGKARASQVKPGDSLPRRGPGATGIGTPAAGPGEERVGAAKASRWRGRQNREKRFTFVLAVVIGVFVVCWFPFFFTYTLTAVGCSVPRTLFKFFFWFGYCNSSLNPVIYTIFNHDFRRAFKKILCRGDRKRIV

hMOR = hMOR (Homo sapiens, UniProt P35372); assay: Radioligand binding assay (Eurofins Cerep), [3H]DAMGO displacement; conditions: for Ki: read-out: MOR Ki ± SEM
Sequence of hMOR (P35372 whole entry): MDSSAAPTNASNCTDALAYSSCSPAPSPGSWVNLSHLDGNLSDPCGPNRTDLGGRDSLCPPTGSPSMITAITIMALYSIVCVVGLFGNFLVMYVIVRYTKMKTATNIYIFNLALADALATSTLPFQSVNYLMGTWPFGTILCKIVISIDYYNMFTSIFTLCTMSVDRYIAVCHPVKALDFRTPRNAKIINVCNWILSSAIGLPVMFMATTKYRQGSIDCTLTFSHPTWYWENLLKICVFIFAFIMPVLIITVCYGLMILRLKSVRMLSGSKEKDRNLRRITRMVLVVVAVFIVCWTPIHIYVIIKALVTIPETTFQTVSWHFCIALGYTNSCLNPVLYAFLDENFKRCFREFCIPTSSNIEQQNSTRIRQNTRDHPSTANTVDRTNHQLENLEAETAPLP

α2C adrenergic receptor = target: T2, α2C adrenergic receptor (Homo sapiens, UniProt P18825); assay: Radioligand binding assay (Eurofins Cerep), [3H]RX 821002 displacement
T2 construct: Eurofins Cerep (contract screening)
T2 sequence (P18825 1-462): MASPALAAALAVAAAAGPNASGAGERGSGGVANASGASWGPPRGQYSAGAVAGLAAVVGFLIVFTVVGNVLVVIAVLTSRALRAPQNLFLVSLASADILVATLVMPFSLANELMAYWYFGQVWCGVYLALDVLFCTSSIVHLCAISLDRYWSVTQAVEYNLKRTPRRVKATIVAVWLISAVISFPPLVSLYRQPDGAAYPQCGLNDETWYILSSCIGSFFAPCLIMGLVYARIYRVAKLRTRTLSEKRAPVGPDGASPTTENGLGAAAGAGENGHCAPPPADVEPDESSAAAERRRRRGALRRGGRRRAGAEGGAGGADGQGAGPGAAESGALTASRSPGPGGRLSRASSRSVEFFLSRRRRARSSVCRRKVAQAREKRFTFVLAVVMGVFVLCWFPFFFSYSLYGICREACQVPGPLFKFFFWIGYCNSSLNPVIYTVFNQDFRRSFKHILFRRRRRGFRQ

hDOR = hDOR (Homo sapiens, UniProt P41143); assay: Radioligand binding assay (Eurofins Cerep), [3H]DADLE displacement; conditions: read-out: DOR Ki ± SEM
Sequence of hDOR (P41143 whole entry): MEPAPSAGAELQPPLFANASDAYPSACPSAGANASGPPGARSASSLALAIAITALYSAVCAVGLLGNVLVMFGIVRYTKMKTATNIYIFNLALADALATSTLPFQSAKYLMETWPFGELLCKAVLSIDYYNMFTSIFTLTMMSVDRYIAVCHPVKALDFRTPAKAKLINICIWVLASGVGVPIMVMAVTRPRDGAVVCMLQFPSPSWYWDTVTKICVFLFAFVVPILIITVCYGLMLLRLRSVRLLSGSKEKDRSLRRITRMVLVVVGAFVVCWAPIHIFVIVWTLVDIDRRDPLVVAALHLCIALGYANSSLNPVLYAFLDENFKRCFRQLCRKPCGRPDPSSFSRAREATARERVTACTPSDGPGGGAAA

hKOR = hKOR (Homo sapiens, UniProt P41145); assay: Radioligand binding assay (Eurofins Cerep), [3H]U69,593 displacement; conditions: read-out: KOR Ki ± SEM
Sequence of hKOR (P41145 whole entry): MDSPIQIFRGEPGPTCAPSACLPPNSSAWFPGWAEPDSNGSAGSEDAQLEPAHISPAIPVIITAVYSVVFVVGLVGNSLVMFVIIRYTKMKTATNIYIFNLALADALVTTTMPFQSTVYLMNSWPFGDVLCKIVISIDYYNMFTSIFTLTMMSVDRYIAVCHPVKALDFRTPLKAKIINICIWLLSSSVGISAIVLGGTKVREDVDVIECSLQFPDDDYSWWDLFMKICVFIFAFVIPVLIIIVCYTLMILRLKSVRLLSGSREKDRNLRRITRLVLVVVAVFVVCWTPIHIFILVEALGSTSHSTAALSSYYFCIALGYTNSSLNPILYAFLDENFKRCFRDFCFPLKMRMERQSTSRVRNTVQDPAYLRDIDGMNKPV

[1] = Alpha2A Ki ± SEM (nM), Table B1, mean ± SEM, 3 independent experiments
[2] = Table B1, mean ± SEM, 3 independent experiments
[3] = Table B1, mean ± SEM, 3 independent experiments, read-out: Alpha2C Ki ± SEM
[4] = Alpha2C Ki ± SEM (nM), Table B1, mean ± SEM, 3 independent experiments
[5] = alpha2A Ki ± SEM (nM), Table B1′

Row | Structure (SMILES) | Ki (α2A adrenergic receptor; [1]) [nM] | Ki (hMOR; [2]) [nM] | Ki (α2C adrenergic receptor; [3]) [nM] | Ki (α2A adrenergic receptor; [5]) [nM] | Ki (hMOR; Table B1′) [nM] | Ki (hDOR; Table B1′) [nM] | Ki (hKOR; Table B1′) [nM] | other results
1 | COC(=O)C=C1CCN2CCC(O)(c3ccccc3OC)CC2C1 (single isomer, unassigned) [SG-01-005A] | 1000 ± 254 | > 10000 | 489 ± 83.4 | – | – | – | – | –
2 | COC(=O)C=C1CCN2CCC(O)(c3ccccc3OC)CC2C1 (single isomer, unassigned) [SG-01-005B] | 110 ± 8 | > 10000 | – | – | – | – | – | Ki (α2C adrenergic receptor; [4]): 46.7 ± 4.04 nM
3 | CC[C@@H]1CN2CC[C@@]3(O)C(=Nc4cccc(OC)c43)[C@@H]2C[C@@H]1/C(=C\OC)C(=O)OC [7-Hydroxy Mitragynine, reference compound] | – | – | – | – | – | – | – | Ki (α2A adrenergic receptor; Table A1, data summary #1, read-out: Alpha2A Ki ± SEM): > 10000 nM; Ki (α2A adrenergic receptor; Table A4, data summary #2, read-out: Alpha2A Ki ± SEM): > 10000 nM; Ki (hDOR; Table A1, data summary #1): 243 nM; Ki (hDOR; Table A4, data summary #2): 243 nM; Ki (α2C adrenergic receptor; Table A1, data summary #1, read-out: Alpha2C Ki ± SEM): > 10000 nM; Ki (hKOR; Table A1, data summary #1): 450 nM; Ki (hKOR; Table A4, data summary #2): 450 nM
4 | C#CCCN1CCC(O)(c2ccccc2OC)CC1 [SG-01-003, 1-(but-3-ynyl)-4-(2-methoxyphenyl)piperidin-4-ol] | 5750 ± 1170 | > 10000 | > 10000 | – | – | – | – | selectivity between MOR and α 2A (hMOR; binding screen of intermediates): not selective towards both receptors
5 | COC(=O)C=C1CCN2CCC(O)(c3ccccc3OC)CC2C1 (centres unmarked) [SG-01-005, Methyl 2-(8-hydroxy-8-(2-methoxyphenyl)dihydro-1H-quinolizin-2(6H,7H,8H,9H, 9aH)-ylidene)acetate] | 264 ± 16 | > 10000 | 129 ± 37.9 | – | – | – | – | –
6 | COC(=O)CC1CCN2CCC(O)(c3ccccc3OC)CC2C1 (centres unmarked) [SG-01-006, Methyl 2-(8-hydroxy-8-(2-methoxyphenyl)octahydro-1H-quinolizin-2-yl)acetate] | 376 ± 72.2 | > 10000 | 139 ± 20.3 | – | – | – | – | –
7 | COC(=O)CC1CCN2CCC(c3ccccc3OC)CC2C1 (centres unmarked) [SG-01-008, Methyl 2-(8-(2-methoxyphenyl)octahydro-1H-quinolizin-2-yl)acetate] | – | > 10000 | – | – | – | – | – | Ki (α2A adrenergic receptor; Table B1, mean ± SEM, 3 independent experiments, read-out: Alpha2A Ki ± SEM): 27.9 ± 3.05 nM; Ki (α2C adrenergic receptor; [4]): 13.6 ± 0.828 nM
8 | COC(=O)C=C1CCN2CCC(O)(c3ccccc3OC)CC2C1 (centres unmarked) [drawing 167] | – | – | – | 227 ± 37 | > 10000 | 2940 ± 2550 | > 10000 | –
9 | COC(=O)CC1CCN2CCC(c3ccccc3OC)CC2C1 (centres unmarked) [drawing 171] | – | – | – | – | > 10000 | > 10000 | > 10000 | Ki (α2A adrenergic receptor; Table B1′, read-out: alpha2A Ki ± SEM): 24 ± 3 nM
10 | COC(=O)CC1CCN2CCC(O)(c3ccccc3)CC2C1 (centres unmarked) [drawing 173] | – | – | – | 129 ± 49 | 8610 ± 2530 | > 10000 | 3600 ± 1080 | –
11 | COC(=O)C=C1CCN2CCC(O)(c3ccccc3)CC2C1 (centres unmarked) [drawing 176] | – | – | – | 155 ± 65 | > 10000 | > 10000 | 7660 ± 2670 | –
12 | COC(=O)C=C1CCN2CCC(O)(c3cccc(OC)c3)CC2C1 (centres unmarked) [drawing 179] | – | – | – | 37 ± 3 | > 10000 | > 10000 | > 10000 | –
13 | COC(=O)C=C1CCN2CCC(O)(c3cccc(OC)c3)CC2C1 (centres unmarked) [drawing 180] | – | – | – | 44 ± 5 | > 10000 | > 10000 | > 10000 | –
